Results as given in ChEMBL document CHEMBL1275304, “Use of phosphonyl carbanions in the synthesis of anti-inflammatory active phosphorus-containing fused heterocycles and relevance phosphonates” (Eur J Med Chem, 2010).

Columns and labels:
[1] = tested on: Rattus norvegicus; assay: Antiinflammatory activity against carrageenan-induced fisher 344 rat paw edema model assessed as inhibition of granuloma at 100 mg/kg; format: functional
[2] = tested on: Rattus norvegicus; assay: Antiinflammatory activity against carrageenan-induced fisher 344 rat paw edema model assessed as reduction of paw volume at 50 mg/kg, ip after 3.5 hrs by plethysmometer; format: functional; conditions: fisher 344, ip, route intraperitoneal
[3] = Acute toxicity in ip dosed albino mouse after 24 hrs; format: organism-based; conditions: in vivo
[4] = tested on: Mus musculus; assay: Toxicity in albino mouse assessed as toxic symptom at 500 to 1000 mg/kg, ip after 24 hrs; format: organism-based; design: dose 500-1000 mg/kg, route intraperitoneal; conditions: in vivo
[5] = tested on: Mus musculus; assay: Toxicity in albino mouse assessed as mortality at 500 to 1000 mg/kg, ip after 24 hrs; format: organism-based; design: dose 500-1000 mg/kg, route intraperitoneal; conditions: in vivo
[6] = tested on: Rattus norvegicus; assay: Antiinflammatory activity against carrageenan-induced fisher 344 rat paw edema model assessed as inhibition of granuloma; format: functional, organism-based

| Compound | inhibition in vivo at 100 mg/kg [1] [%] | inhibition in vivo at 50 mg/kg [2] [%] | LD50 at 24 h [3] [µmol/kg] | Activity [4] | Activity [5] | Activity [6] |
| --- | --- | --- | --- | --- | --- | --- |
| CCOC(=O)C1=c2cc(Br)sc2=C(C)OP1(=O)OCC (stereo not drawn) | 60.4 | 60.4 | > 300 | – | – | – |
| CCOP1(=O)OC2(C)C(=O)C=CC2(C)C1C#N (stereo not drawn) | 66.6 | 66.6 | > 300 | – | – | – |
| COc1ccc2c(c1)c(CC(=O)O)c(C)n2C(=O)c1ccc(Cl)cc1 [INDOMETHACIN] | – | 68.4 | > 300 | – | – | – |
| CCOP(=O)(/C=C\c1cc2c(s1)=C(C)OP(=O)(OCC)C=2C)OCC (stereo not drawn) | – | 87.6 | > 300 | Non-toxic | Non-toxic | – |
| CCOC(=O)C1=c2cc(C(C(=O)OCC)P(=O)(OCC)OCC)sc2=C(C)OP1(=O)OCC (stereo not drawn) | – | 76.1 | > 300 | Non-toxic | Non-toxic | Dose-dependent effect |
| CCOP1(=O)OC(C)=c2sc(Br)cc2=C1C(=O)OC (stereo not drawn) | 68.1 | 68.1 | > 300 | – | – | – |
| CCOP1(=O)OC(C)=c2sc(C(C(=O)OC)P(=O)(OCC)OCC)cc2=C1C(=O)OC (stereo not drawn) | – | 75.9 | > 300 | Non-toxic | Non-toxic | Dose-dependent effect |
| CCOP1(=O)OC(C)=c2sc(Br)cc2=C1C#N (stereo not drawn) | 62.8 | 62.8 | > 300 | – | – | – |
| CCOC(=O)C1C2(C)C=CC(=O)C2(C)OP1(=O)OCC (stereo not drawn) | 59.7 | 59.7 | > 300 | – | – | – |
| CCOP1(=O)OC(C)=c2sc(C(C#N)P(=O)(OCC)OCC)cc2=C1C#N (stereo not drawn) | – | 81.1 | > 300 | Non-toxic | Non-toxic | – |
| CCOP1(=O)OC2(C)C(=O)C=CC2(C)C1C(=O)OC (stereo not drawn) | 63.2 | 63.2 | > 300 | – | – | – |
